Several values for one entry are separate records, joined by “and”; a condition that tells them apart may be missing. Equal values may be shown once.
Tested on: PDC tumor spheroids with HUVEC/MSC, viability
Test: Anticancer human tumor 439559-082-T-J2-PDC patient-derived colon adenocarcinoma cell line growth inhibition [TAK]
Conditions: for viability, T/C: stronger effect = lower value; active = viability on the fitted dose curve at most 10% of control; inactive = the rest
In short: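 Drug combinations, each paired with TAK-243 or ipatasertib, were tested on multi-cell spheroids of 60% malignant cells, 25% HUVEC and 15% hMSC. Top concentrations were at or near the clinical Cmax (10 microM if undetermined), decreasing by half-log; viability is given as % test/control.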

[1] = curve of first compound, second compound 0.3 µM
[2] = curve of first compound, second compound 0.949 µM
[3] = curve of first compound, second compound 3 µM
[4] = curve of first compound, second compound 9.49 µM
[5] = curve of first compound, second compound 30 µM
[6] = second compound 0.3 µM, first compound 0.0316 µM
[7] = second compound 0.3 µM, first compound 0.1 µM
[8] = second compound 0.949 µM, first compound 0.0316 µM
[9] = second compound 0.949 µM, first compound 0.1 µM
[10] = second compound 3 µM, first compound 0.0316 µM
[11] = second compound 3 µM, first compound 0.1 µM
[12] = second compound 9.49 µM, first compound 0.0316 µM
[13] = second compound 9.49 µM, first compound 0.1 µM
[14] = second compound 30 µM, first compound 0.0316 µM
[15] = second compound 30 µM, first compound 0.1 µM
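Note: spheroids exposed to drugs for seven days before readout.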

Cn1cnc2c(F)c(Nc3ccc(Br)cc3Cl)c(C(=O)NOCCO)cc21 + CC(C)NCC(C(=O)N1CCN(c2ncnc3c2C(C)CC3O)CC1)c1ccc(Cl)cc1
> 3 µM: IC50 [1] | IC50 [2] | IC50 [3] | IC50 [4] | IC50 [5]
inactive: viability, T/C (second compound 0.3 µM, first compound 0.00949 µM) 92.4% | viability, T/C (second compound 0.3 µM, first compound 0.03 µM) 82.1% | viability, T/C (second compound 0.3 µM, first compound 0.0949 µM) 80.9% | viability, T/C (second compound 0.3 µM, first compound 0.3 µM) 76.3% | viability, T/C (second compound 0.3 µM, first compound 0.949 µM) 68.9% | viability, T/C (second compound 0.3 µM, first compound 3 µM) 65.7% | viability, T/C (second compound 0.949 µM, first compound 0.00949 µM) 104% | viability, T/C (second compound 0.949 µM, first compound 0.03 µM) 97.4% | viability, T/C (second compound 0.949 µM, first compound 0.0949 µM) 81% | viability, T/C (second compound 0.949 µM, first compound 0.3 µM) 77.2% | viability, T/C (second compound 0.949 µM, first compound 0.949 µM) 67.9% | viability, T/C (second compound 0.949 µM, first compound 3 µM) 69.4% | viability, T/C (second compound 3 µM, first compound 0.00949 µM) 102% | viability, T/C (second compound 3 µM, first compound 0.03 µM) 99.8% | viability, T/C (second compound 3 µM, first compound 0.0949 µM) 80.2% | viability, T/C (second compound 3 µM, first compound 0.3 µM) 68.2% | viability, T/C (second compound 3 µM, first compound 0.949 µM) 72% | viability, T/C (second compound 3 µM, first compound 3 µM) 63.3% | viability, T/C (second compound 9.49 µM, first compound 0.00949 µM) 99.2% | viability, T/C (second compound 9.49 µM, first compound 0.03 µM) 91.7% | viability, T/C (second compound 9.49 µM, first compound 0.0949 µM) 83.9% | viability, T/C (second compound 9.49 µM, first compound 0.3 µM) 72% | viability, T/C (second compound 9.49 µM, first compound 0.949 µM) 70.5% | viability, T/C (second compound 9.49 µM, first compound 3 µM) 64.7% | viability, T/C (second compound 30 µM, first compound 0.00949 µM) 93.6% | viability, T/C (second compound 30 µM, first compound 0.03 µM) 89.7% | viability, T/C (second compound 30 µM, first compound 0.0949 µM) 85.4% | viability, T/C (second compound 30 µM, first compound 0.3 µM) 75.2% | viability, T/C (second compound 30 µM, first compound 0.949 µM) 69.5% | viability, T/C (second compound 30 µM, first compound 3 µM) 66.3%

CC(C)(C)c1nc(-c2cccc(NS(=O)(=O)c3c(F)cccc3F)c2F)c(-c2ccnc(N)n2)s1
> 10 µM: IC50 (curve of compound)
inactive: viability, T/C (compound 0.0316 µM) 114% and 120% | viability, T/C (compound 0.1 µM) 109% | viability, T/C (compound 0.316 µM) 118% and 108% | viability, T/C (compound 1 µM) 108% and 104% | viability, T/C (compound 3.16 µM) 120% and 102% | viability, T/C (compound 10 µM) 101% and 98%

CC(C)n1nc(-c2ccc3oc(N)nc3c2)c2c(N)ncnc21 + CC(C)NCC(C(=O)N1CCN(c2ncnc3c2C(C)CC3O)CC1)c1ccc(Cl)cc1
inactive: viability, T/C (second compound 0.3 µM, first compound 0.000316 µM) 109% | viability, T/C (second compound 0.3 µM, first compound 0.001 µM) 98.8% | viability, T/C (second compound 0.3 µM, first compound 0.00316 µM) 96.5% | viability, T/C (second compound 0.3 µM, first compound 0.01 µM) 80.4% | viability, T/C [6] 73.1% | viability, T/C [7] 71.2% | viability, T/C (second compound 0.949 µM, first compound 0.000316 µM) 106% | viability, T/C (second compound 0.949 µM, first compound 0.001 µM) 101% | viability, T/C (second compound 0.949 µM, first compound 0.00316 µM) 83% | viability, T/C (second compound 0.949 µM, first compound 0.01 µM) 85% | viability, T/C [8] 76% | viability, T/C [9] 68% | viability, T/C (second compound 3 µM, first compound 0.000316 µM) 101% | viability, T/C (second compound 3 µM, first compound 0.001 µM) 91.8% | viability, T/C (second compound 3 µM, first compound 0.00316 µM) 80.8% | viability, T/C (second compound 3 µM, first compound 0.01 µM) 82% | viability, T/C [10] 73.7% | viability, T/C [11] 71.8% | viability, T/C (second compound 9.49 µM, first compound 0.000316 µM) 89.5% | viability, T/C (second compound 9.49 µM, first compound 0.001 µM) 94.6% | viability, T/C (second compound 9.49 µM, first compound 0.00316 µM) 84.1% | viability, T/C (second compound 9.49 µM, first compound 0.01 µM) 78.7% | viability, T/C [12] 69.9% | viability, T/C [13] 66.8% | viability, T/C (second compound 30 µM, first compound 0.000316 µM) 88.6% | viability, T/C (second compound 30 µM, first compound 0.001 µM) 91.1% | viability, T/C (second compound 30 µM, first compound 0.00316 µM) 87.8% | viability, T/C (second compound 30 µM, first compound 0.01 µM) 75% | viability, T/C [14] 73.3% | viability, T/C [15] 70.3%
> 0.1 µM: IC50 [1] | IC50 [2] | IC50 [3] | IC50 [4] | IC50 [5]

Cn1cnc2c(F)c(Nc3ccc(Br)cc3Cl)c(C(=O)NOCCO)cc21
> 3 µM: IC50 (curve of compound)
inactive: viability, T/C (compound 0.00949 µM) 101% and 110% | viability, T/C (compound 0.03 µM) 90.2% and 101% | viability, T/C (compound 0.0949 µM) 83.1% and 76.7% | viability, T/C (compound 0.3 µM) 71.4% and 79.2% | viability, T/C (compound 0.949 µM) 74.4% and 74.2% | viability, T/C (compound 3 µM) 65.5% and 64.2%

CC(C)CC(NC(=O)CNC(=O)c1cc(Cl)ccc1Cl)B1OC(=O)CC(CC(=O)O)(C(=O)O)O1 (stereo not drawn)
> 0.1 µM: IC50 (curve of compound)
inactive: viability, T/C (compound 0.000316 µM) 111% and 114% | viability, T/C (compound 0.001 µM) 96.4% and 98.7% | viability, T/C (compound 0.00316 µM) 99.3% and 98.8% | viability, T/C (compound 0.01 µM) 93.5% and 90.3% | viability, T/C (compound 0.0316 µM) 85.8% and 77.8% | viability, T/C (compound 0.1 µM) 62.1% and 56.6%

Cc1nc(NC(=O)N2CCCC2C(N)=O)sc1-c1ccnc(C(C)(C)C(F)(F)F)c1 (stereo not drawn) + CC(C)NCC(C(=O)N1CCN(c2ncnc3c2C(C)CC3O)CC1)c1ccc(Cl)cc1
> 10 µM: IC50 [1] | IC50 [2] | IC50 [3] | IC50 [4] | IC50 [5]
inactive: viability, T/C [6] 106% | viability, T/C [7] 98.8% | viability, T/C (second compound 0.3 µM, first compound 0.316 µM) 85% | viability, T/C (second compound 0.3 µM, first compound 1 µM) 86.8% | viability, T/C (second compound 0.3 µM, first compound 3.16 µM) 80.9% | viability, T/C (second compound 0.3 µM, first compound 10 µM) 69.6% | viability, T/C [8] 109% | viability, T/C [9] 102% | viability, T/C (second compound 0.949 µM, first compound 0.316 µM) 86.3% | viability, T/C (second compound 0.949 µM, first compound 1 µM) 85.8% | viability, T/C (second compound 0.949 µM, first compound 3.16 µM) 80.1% | viability, T/C (second compound 0.949 µM, first compound 10 µM) 70% | viability, T/C [10] 98.8% | viability, T/C [11] 102% | viability, T/C (second compound 3 µM, first compound 0.316 µM) 85.5% | viability, T/C (second compound 3 µM, first compound 1 µM) 85.6% | viability, T/C (second compound 3 µM, first compound 3.16 µM) 78.5% | viability, T/C (second compound 3 µM, first compound 10 µM) 82.3% | viability, T/C [12] 95.8% | viability, T/C [13] 91.4% | viability, T/C (second compound 9.49 µM, first compound 0.316 µM) 85% | viability, T/C (second compound 9.49 µM, first compound 1 µM) 83.1% | viability, T/C (second compound 9.49 µM, first compound 3.16 µM) 75.7% | viability, T/C (second compound 9.49 µM, first compound 10 µM) 74.2% | viability, T/C [14] 86.4% | viability, T/C [15] 91.7% | viability, T/C (second compound 30 µM, first compound 0.316 µM) 84.9% | viability, T/C (second compound 30 µM, first compound 1 µM) 79% | viability, T/C (second compound 30 µM, first compound 3.16 µM) 81.3% | viability, T/C (second compound 30 µM, first compound 10 µM) 71.5%

CCCS(=O)(=O)Nc1ccc(F)c(C(=O)c2c[nH]c3ncc(-c4ccc(Cl)cc4)cc23)c1F
inactive: viability, T/C (compound 0.316 µM) 114% and 106% | viability, T/C (compound 1 µM) 109% and 102% | viability, T/C (compound 3.16 µM) 97.3% and 102% | viability, T/C (compound 10 µM) 87.2% and 71.7% | viability, T/C (compound 31.6 µM) 103% and 94.9% | viability, T/C (compound 100 µM) 93.9% and 95.7%
> 100 µM: IC50 (curve of compound)

— PubChem BioAssay AID2060356 (Molecular Pharmacology Branch, DTP, NCI, 2025)
